Paper PMC11149917, “Translational and Therapeutic Evaluation of RAS-GTP Inhibition by RMC-6236 in RAS-Driven Cancers” (Cancer Discovery, 2024)
Read-outs that look alike come from different tables or passages of the source.

Assay: Mouse blood and tissue PK (LC/MS-MS)
Type: in vivo
Conditions: for Kp: tumor relative to whole blood
Procedure: For single-dose PKPD study, mice were randomized and assigned into groups (n = 3/dose/time point). […] Blood and tissues, including the tumor, brain, colon, ear skin, and muscle, were harvested at indicated time points. […] The whole blood, tumor, brain, colon, and ear skin concentrations of RMC-6236 were determined using liquid chromatography–tandem mass spectrometry (LC/MS-MS) methods. […] After thorough mixing and centrifugation, the supernatant was diluted with water or directly analyzed on a Sciex 5500 or Sciex 6500+ triple quadrupole mass spectrometer equipped with an ACQUITY or Shimadzu UPLC system. […] Bioanalysis on blood and tissue samples from xenograft models was run at Pharmaron and Wuxi AppTec. Concentrations reported as below the quantification limit were treated as zero for PK analysis. PK parameters were calculated by noncompartmental analysis of the concentration–time profiles using Phoenix WinNonLin (version 8.3 Certara). Apparent terminal elimination half-life (t1/2) values were calculated as ln(2)/k, where k represents the terminal elimination rate constant. Area under the concentration–time curve (AUC) values were estimated using a linear trapezoidal method. AUClast values were calculated from the dosing time to the last quantifiable concentration. Maximum concentration (Cmax) was recorded as observed.

[1] = NCI-H2122 (25 mg/kg), single dose

For `CCn1c(-c2cc(N3CCN(C)CC3)cnc2[C@H](C)OC)c2c3cc(ccc31)-c1csc(n1)C[C@H](NC(=O)[C@H]1C[C@@H]1C)C(=O)N1CCC[C@H](N1)C(=O)OCC(C)(C)C2` [RMC-6236], the “Tumor AUClast” value [1] was 50057 ng·h/mL, the “Tumor Cmax” value [1] was 3350 ng/mL and the “Brain Cmax” value (Naïve Mice #1 (10 mg/kg), single dose) was 25 ng/mL. The “Brain Cmax” value (Naïve Mice #1 (50 mg/kg), single dose) was 161 ng/mL, the concentration at 4 h (mouse, ear skin, oral, 25 mg/kg, sheet Ear Skin, model KP-4, study KP-4 #5, 25 mg/kg, read-out: RMC-6236 (nM) Tumor) was 2790 nM and the concentration at 8 h (mouse, ear skin, oral, 25 mg/kg, sheet Ear Skin, model KP-4, study KP-4 #5, 25 mg/kg, 8h, read-out: RMC-6236 (nM) Tumor) was 1610 nM. The concentration at 48 h (mouse, ear skin, oral, 25 mg/kg, sheet Ear Skin, model KP-4, study KP-4 #5, 25 mg/kg, 48h, read-out: RMC-6236 (nM) Tumor) was 221 nM, the Kp (mouse, oral, 3 mg/kg, NCI-H441 (3 mg/kg), single dose, read-out: Tumor/Blood AUC Ratio) was 5.4 and the Kp (mouse, oral, 10 mg/kg, NCI-H441 (10 mg/kg), single dose, read-out: Tumor/Blood AUC Ratio) was 4.6. The Kp (mouse, oral, 25 mg/kg, HPAC (25 mg/kg), single dose, read-out: Tumor/Blood AUC Ratio) was 6.6, the Kp (mouse, oral, 25 mg/kg, KP-4 (25 mg/kg), single dose, read-out: Tumor/Blood AUC Ratio) was 6.4 and the Kp (mouse, oral, 25 mg/kg, NCI-H358 (25 mg/kg), single dose, read-out: Tumor/Blood AUC Ratio) was 5.9. The Kp (mouse, oral, 25 mg/kg, NCI-H441 #2 (25 mg/kg), QD x 10 days, read-out: Tumor/Blood AUC Ratio) was 4.9, the Kp (mouse, oral, 25 mg/kg, NCI-H441 (25 mg/kg), single dose, read-out: Tumor/Blood AUC Ratio) was 6.1 and the Kp (mouse, oral, 25 mg/kg, NCI-H2122 (25 mg/kg), single dose, read-out: Tumor/Blood AUC Ratio) was 6.3. It also gave a Kp (mouse, oral, various xenograft tumors, read-out: exposure in xenograft tumors relative to blood) of 3 to 7, a concentration at 8 h (mouse, tumor, oral, 0.3 mg/kg, HPAC #11, 0.3 mg/kg, 8h, individual animals, read-out: RMC-6236 (nM) Tumor) of 37 nM and a concentration at 24 h (mouse, tumor, oral, 0.3 mg/kg, NCI-H441 xenograft tumor, study NCI-H441#10, 0.3 mg/kg, 24h, read-out: RMC-6236 (nM) Tumor) of 36.8 nM. For the same compound, the concentration at 8 h (mouse, tumor, oral, 0.3 mg/kg, NCI-H441 xenograft tumor, study NCI-H441#13, 0.3 mg/kg, 8h, read-out: RMC-6236 (nM) Tumor) was 89.5 nM, the concentration at 8 h (mouse, tumor, oral, 1 mg/kg, HPAC #11, 1 mg/kg, 8h, individual animals, read-out: RMC-6236 (nM) Tumor) was 216 nM and the concentration at 8 h (mouse, tumor, oral, 1 mg/kg, NCI-H441 xenograft tumor, study NCI-H441#10, 1 mg/kg, 8h, read-out: RMC-6236 (nM) Tumor) was 129 nM. The concentration at 8 h (mouse, tumor, oral, 1 mg/kg, NCI-H441 xenograft tumor, study NCI-H441#13, 1 mg/kg, 8h, read-out: RMC-6236 (nM) Tumor) was 114 nM, the concentration at 24 h (mouse, tumor, oral, 1 mg/kg, NCI-H441 xenograft tumor, study NCI-H441#13, 1 mg/kg, 24h, read-out: RMC-6236 (nM) Tumor) was 53.2 nM and the concentration at 8 h (mouse, tumor, oral, 3 mg/kg, HPAC #4, 3 mg/kg, 8h, individual animals, read-out: RMC-6236 (nM) Tumor) was 245 nM. It also gave a concentration at 24 h (mouse, tumor, oral, 3 mg/kg, HPAC #4, 3 mg/kg, 24h, individual animals, read-out: RMC-6236 (nM) Tumor) of 205 nM, a concentration at 48 h (mouse, tumor, oral, 3 mg/kg, HPAC #4, 3 mg/kg, 48h, individual animals, read-out: RMC-6236 (nM) Tumor) of 31.9 nM and a concentration at 4 h (mouse, tumor, oral, 3 mg/kg, KP-4, study KP-4 #6, 3 mg/kg, read-out: RMC-6236 (nM) Tumor) of 264 nM. For the same compound, the concentration at 8 h (mouse, tumor, oral, 3 mg/kg, KP-4, study KP-4 #6, 3 mg/kg, 8h, read-out: RMC-6236 (nM) Tumor) was 340 nM, the concentration at 12 h (mouse, tumor, oral, 3 mg/kg, KP-4, study KP-4 #6, 3 mg/kg, 12h, read-out: RMC-6236 (nM) Tumor) was 298 nM and the concentration at 48 h (mouse, tumor, oral, 3 mg/kg, KP-4, study KP-4 #6, 3 mg/kg, 48h, read-out: RMC-6236 (nM) Tumor) was 29 nM. For the same compound, the concentration at 24 h (mouse, tumor, oral, 3 mg/kg, NCI-H441 xenograft tumor, study NCI-H441#6, 3 mg/kg, 24h, read-out: RMC-6236 (nM) Tumor) was 159 nM, the concentration at 48 h (mouse, tumor, oral, 3 mg/kg, NCI-H441 xenograft tumor, study NCI-H441#6, 3 mg/kg, 48h, read-out: RMC-6236 (nM) Tumor) was 63 nM and the concentration at 4 h (mouse, tumor, oral, 10 mg/kg, HPAC #4, 10 mg/kg, individual animals, read-out: RMC-6236 (nM) Tumor) was 817 nM. The concentration at 8 h (mouse, tumor, oral, 10 mg/kg, HPAC #4, 10 mg/kg, 8h, individual animals, read-out: RMC-6236 (nM) Tumor) was 1230 nM, the concentration at 24 h (mouse, tumor, oral, 10 mg/kg, HPAC #4, 10 mg/kg, 24h, individual animals, read-out: RMC-6236 (nM) Tumor) was 300 nM and the concentration at 48 h (mouse, tumor, oral, 10 mg/kg, HPAC #4, 10 mg/kg, 48h, individual animals, read-out: RMC-6236 (nM) Tumor) was 128 nM. It also gave a concentration at 48 h (mouse, tumor, oral, 10 mg/kg, KP-4, study KP-4 #6, 10 mg/kg, 48h, read-out: RMC-6236 (nM) Tumor) of 235 nM, a concentration at 1 h (mouse, tumor, oral, 10 mg/kg, Model Validation Dataset, 10mg/kg_study6, 1 h, read-out: Tumor Concentration) of 340 nM and a concentration at 8 h (mouse, tumor, oral, 10 mg/kg, Model Validation Dataset, 10mg/kg_study6, 8 h, read-out: Tumor Concentration) of 1010 nM. The concentration at 24 h (mouse, tumor, oral, 10 mg/kg, Model Validation Dataset, 10mg/kg_study6, 24 h, read-out: Tumor Concentration) was 353 nM, the concentration at 48 h (mouse, tumor, oral, 10 mg/kg, Model Validation Dataset, 10mg/kg_study6, 48 h, read-out: Tumor Concentration) was 214 nM and the concentration at 8 h (mouse, tumor, oral, 10 mg/kg, NCI-H441 xenograft tumor, study NCI-H441#6, 10 mg/kg, 8h, read-out: RMC-6236 (nM) Tumor) was 904 nM. It also gave a concentration at 24 h (mouse, tumor, oral, 10 mg/kg, NCI-H441 xenograft tumor, study NCI-H441#6, 10 mg/kg, 24h, read-out: RMC-6236 (nM) Tumor) of 519 nM, a concentration at 48 h (mouse, tumor, oral, 10 mg/kg, NCI-H441 xenograft tumor, study NCI-H441#6, 10 mg/kg, 48h, read-out: RMC-6236 (nM) Tumor) of 213 nM and a concentration at 8 h (mouse, tumor, oral, 10 mg/kg, NCI-H441 xenograft tumor, study NCI-H441#10, 10 mg/kg, 8h, read-out: RMC-6236 (nM) Tumor) of 685 nM. The concentration at 24 h (mouse, tumor, oral, 10 mg/kg, NCI-H441 xenograft tumor, study NCI-H441#10, 10 mg/kg, 24h, read-out: RMC-6236 (nM) Tumor) was 541 nM and the concentration at 48 h (mouse, tumor, oral, 10 mg/kg, NCI-H441 xenograft tumor, study NCI-H441#10, 10 mg/kg, 48h, read-out: RMC-6236 (nM) Tumor) was 153 nM.
